From paper PMC8194028, “Engineering and characterization of human β-defensin-3 and its analogues and microcin J25 peptides against Mannheimia haemolytica and bovine neutrophils” (Veterinary Research, 2021)
Converted amounts (≈) assume the structure as drawn. Read-outs that look alike come from different tables or passages of the source. Positions of bridges follow the written chain, without caps; N, C: chain ends. Residues, ends and D or L forms follow the SMILES beside them. No end group written: not given here.

Tested on: M. haemolytica-A1
Assay type: cell-based, Mannheimia haemolytica
Details: for No. of CFU: one of three experiments
Procedure: Wild-type HBD3, its analogues, and MccJ25 were tested against M. haemolytica-A1 using optical density method and colony count assay. Briefly, an aliquot (5 µL) from bacteria suspension stored at −80 °C was put in 5 mL BHI broth at 37 °C for 18 h. An aliquot (10 µL) from this overnight culture was added to fresh BHI broth and incubated at 37 °C for a further 5 h to obtain mid-log phase bacteria. The culture was then centrifuged for 10 min at 800 g at 4 °C. The supernatant was discarded and the bacterial pellet was resuspended in cold, sterile sodium phosphate buffer (SPB) and washed again at 800g for 10 min at 4 °C. The pellet was resuspended in 5 mL SPB. To calculate the number of CFU/mL in the 5 h culture, six successive tenfold dilutions were made. From the last dilution 100 µL was plated in duplicate on petri dishes containing BHI agar and incubated for 24 h. After 24 h the colonies were counted in the two petri dishes and then averaged. Total number of colonies was the average number of colonies multiplied by the dilution factor.
All assays were carried out in sterile 96-well polypropylene flat-bottomed plates using a broth microdilution method. Two-fold serial dilutions of peptide were made in SPB, and 50 µL of each concentration of peptide was added to the wells of the assay plate. […] Positive control wells contained 50 µL of the bacteria with 50 µL of 64 µg/mL ampicillin and negative control wells contained 50 µL of SPB and 50 µL bacterial suspension. Sterility control well contained 100 µL BHI broth to test and ensure that broth was not contaminated.
The plates were sealed with aluminum foil and were incubated at 37 °C for 2 h then 50 µL of the contents of the well were pipetted on BHI agar plates and incubated for 24 h. The bactericidal activity was expressed as the MBC which is the concentration at which 99.9% of the colonies are killed and the Lethal dose 50 (LD50) at which 50% or more bacteria are killed. All experiments were run in triplicates.
Peptides HBD3, its analogues and Mccj25 were assessed for Minimum bactericidal concentration (MBC). […] All the peptides have shown intermediate to potent killing activity towards M. haemolytica (Figures 2, 3). […] However, some published studies have taken final inoculum in the range of 10^4–10^5 cfu/mL [28].

## CC[C@H](C)[C@H](NC(=O)CNC(=O)[C@@H](NC(=O)[C@H](Cc1ccccc1)NC(=O)[C@H](Cc1ccc(O)cc1)NC(=O)[C@@H]1CCC(=O)NCC(=O)NCC(=O)N[C@@H](C)C(=O)NCC(=O)N[C@@H](Cc2c[nH]cn2)C(=O)N[C@@H](C(C)C)C(=O)N2CCC[C@H]2C(=O)N1)C(C)C)C(=O)NCC(=O)N[C@H](C(=O)N1CCC[C@H]1C(=O)N[C@H](C(=O)N[C@@H](CO)C(=O)N[C@@H](Cc1ccccc1)C(=O)N[C@@H](Cc1ccc(O)cc1)C(=O)NCC(=O)O)[C@@H](C)CC)[C@@H](C)O [MccJ25, Microcin J25] (GGAGHVPEYFVGIGTPISFYG-OH; lactam N-8 (inferred); C-terminus assumed)
Concentration at which 99.9% of the CFU in the final inoculum are killed, 2 h at 37 °C in SPB/BHI, then plated on BHI agar 24 h, final inoculum 1 × 10^5 to 1 × 10^6 cfu/mL, triplicates
  MBC: 100 µg/mL (≈ 47.5 µM)
Lethal dose for ≥ 50% of bacteria, 2 h at 37 °C, then plated 24 h, final inoculum 1 × 10^5 to 1 × 10^6 cfu/mL, triplicates
  LD50: 6.3 µg/mL
Peptide 0.8 μg/mL, well row A (duplicate 1), final inoculum 5 × 10^5 cfu/mL
  No. of CFU: >400 CFU
Peptide 0.8 μg/mL, well row B (duplicate 2), final inoculum 5 × 10^5 cfu/mL
  No. of CFU: >400 CFU
Peptide 1.6 μg/mL, well row A (duplicate 1), final inoculum 5 × 10^5 cfu/mL
  No. of CFU: >400 CFU
Peptide 1.6 μg/mL, well row B (duplicate 2), final inoculum 5 × 10^5 cfu/mL
  No. of CFU: >400 CFU
Peptide 3.1 μg/mL, well row A (duplicate 1), final inoculum 5 × 10^5 cfu/mL
  No. of CFU: >400 CFU
Peptide 3.1 μg/mL, well row B (duplicate 2), final inoculum 5 × 10^5 cfu/mL
  No. of CFU: >400 CFU
Peptide 6.3 μg/mL, well row A (duplicate 1), final inoculum 5 × 10^5 cfu/mL
  No. of CFU: 289 CFU
Peptide 6.3 μg/mL, well row B (duplicate 2), final inoculum 5 × 10^5 cfu/mL
  No. of CFU: 261 CFU
Peptide 12.5 μg/mL, well row A (duplicate 1), final inoculum 5 × 10^5 cfu/mL
  No. of CFU: 211 CFU
Peptide 12.5 μg/mL, well row B (duplicate 2), final inoculum 5 × 10^5 cfu/mL
  No. of CFU: 253 CFU
Peptide 25.0 μg/mL, well row A (duplicate 1), final inoculum 5 × 10^5 cfu/mL
  No. of CFU: 314 CFU
Peptide 25.0 μg/mL, well row B (duplicate 2), final inoculum 5 × 10^5 cfu/mL
  No. of CFU: 310 CFU
Peptide 50.0 μg/mL, well row A (duplicate 1), final inoculum 5 × 10^5 cfu/mL
  No. of CFU: 328 CFU
Peptide 50.0 μg/mL, well row B (duplicate 2), final inoculum 5 × 10^5 cfu/mL
  No. of CFU: 230 CFU
Peptide 100.0 μg/mL, well row A (duplicate 1), final inoculum 5 × 10^5 cfu/mL, 2 h 37 °C, 50 μL plated, 24 h
  No. of CFU: 211 CFU
Peptide 100.0 μg/mL, well row B (duplicate 2), final inoculum 5 × 10^5 cfu/mL
  No. of CFU: 275 CFU

## RGRKVVRRKK-OH [HBD3 10AA analogue]
2 h
  MBC: 6.3 µg/mL
18 h
  LD50: ≥ 3.1 µg/mL
Peptide 3.1 μg/mL, well row A (duplicate 1), final inoculum 10^4 cfu/mL
  No. of CFU: 7 CFU
Peptide 3.1 μg/mL, well row B (duplicate 2), final inoculum 10^4 cfu/mL
  No. of CFU: 2 CFU
Peptide 6.3 μg/mL, well row A (duplicate 1), final inoculum 10^4 cfu/mL
  No. of CFU: 4 CFU
Peptide 6.3 μg/mL, well row B (duplicate 2), final inoculum 10^4 cfu/mL
  No. of CFU: 1 CFU
Peptide 12.5 μg/mL, well row A (duplicate 1), final inoculum 10^4 cfu/mL
  No. of CFU: 4 CFU
Peptide 12.5 μg/mL, well row B (duplicate 2), final inoculum 10^4 cfu/mL
  No. of CFU: 6 CFU
Peptide 25.0 μg/mL, well row A (duplicate 1), final inoculum 10^4 cfu/mL
  No. of CFU: 4 CFU
Peptide 25.0 μg/mL, well row B (duplicate 2), final inoculum 10^4 cfu/mL
  No. of CFU: 3 CFU
Peptide 50.0 μg/mL, well row A (duplicate 1), final inoculum 10^4 cfu/mL
  No. of CFU: 4 CFU
Peptide 50.0 μg/mL, well row B (duplicate 2), final inoculum 10^4 cfu/mL
  No. of CFU: 1 CFU
Peptide 100.0 μg/mL, well row A (duplicate 1), final inoculum 10^4 cfu/mL
  No. of CFU: 0 CFU
Peptide 100.0 μg/mL, well row B (duplicate 2), final inoculum 10^4 cfu/mL
  No. of CFU: 0 CFU
